Laboratory results reported in publication PMC11150675, “Simultaneous determination of multiple components in rat plasma by UPLC-MS/MS for pharmacokinetic studies after oral administration of Pogostemon cablin extract” (Frontiers in Pharmacology, 2024).
Like-named read-outs stand apart in the source and are kept apart here.

Columns and labels:
[1] = PK study in rats after single oral administration of Pogostemon cablin (PC) extract, plasma analysed by UPLC-MS/MS; details: for detection in plasma after oral PC extract: no complete PK profile obtained; for shape of plasma concentration-time curve: Figure 2
Procedure: (§1) The 100 μL plasma sample was combined with 20 μL of ME, 20 μL of IS (500 ng/mL), and 2.5 μL of FA, followed by vortexing for 1 min. This mixture underwent extraction with 600 μL ACN through vortexing at room temperature for 3 min. Subsequent to centrifugation at 14,000 rpm for a period of 10 min, the resulting supernatant was moved to another tube and dried under a stream of nitrogen. The dried residue was dissolved in 100 μL ME-ACN (50:50 v/v), followed by vortexing for 5 min, and subsequent centrifugation at 14,000 rpm for 10 min. Finally, 20 μL of the supernatant was used for analysis.
(§2) A concentration of 0.5 g/mL of PC extract was obtained by dissolving in 0.5% CMC-Na aqueous solution. The PC suspension of the 4.0 g/kg dose was given to rats by single oral administration. […] Subsequently, the plasma collected underwent centrifugation at a speed of 7000 rpm for a duration of 10 min. It was then moved to clean tubes and kept at a temperature of −80°C.
(§3) Data in this study was presented as the mean ± standard deviation (SD). The MassHunter Workstation software (version B.09.00, Agilent, United States) was utilized for determining the plasma levels of the 15 analytes. Additionally, PK parameters were analyzed using DAS 3.0 Software (Medical College of Wannan, China).

[2] = rat, in vivo, po, 4 g/kg
Procedure: as §1, §2, §3

[3] = rat plasma, PC extract 4.0 g/kg single oral dose, n = 6
[4] = rat plasma, PC extract 4.0 g/kg oral

Row | AUC ([1]; male, rat, plasma, po, 4 g/kg) [ng·h/mL] | AUC(0-inf) ([1]; male, rat, plasma, po, 4 g/kg) [ng·h/mL] | Cmax ([1]; male, rat, plasma, po, 4 g/kg) [ng/mL] | Tmax ([1]; male, rat, plasma, po, 4 g/kg) [h] | half-life ([1]; male, rat, plasma, po, 4 g/kg) [h] | SMILES | further results
1 | 1310 | 1310 | 116 ± 36.8 | 1.4 ± 1.4 | 2.5 ± 0.1 | COc1cc(C(=O)O)ccc1O [Vanillic acid, vanillic acid] | –
2 | 384 ± 93.8 | 384 ± 93.8 | 109 ± 41.5 | 0.5 ± 0.3 | 2.9 ± 0.3 | C[C@@H]1O[C@@H](O[C@@H]2[C@@H](O)[C@H](OCCc3ccc(O)c(O)c3)O[C@H](COC(=O)/C=C/c3ccc(O)c(O)c3)[C@H]2O)[C@H](O)[C@H](O)[C@H]1O [Isoacteoside, isoacteoside] | –
3 | – | – | – | – | – | COc1cc(O)c2c(=O)c(O)c(-c3ccc(OC)c(O)c3)oc2c1 [Ombuin, ombuin] | AUC (0-tn) [1, 3]: 95.1 ± 28.1 µg·h/L; AUC (0-∞) [1, 3]: 95.4 ± 28.4 ng·h/mL; Cmax [1, 3]: 11.2 ± 1.5 ng/mL; T1/2z [1, 3]: 3.8 ± 1.8 h; Tmax [1, 3]: 0.6 ± 0.2 h
4 | – | – | – | – | – | O=c1c(O[C@@H]2O[C@H](CO)[C@H](O)[C@H](O)[C@H]2O)c(-c2ccc(O)c(O)c2)oc2cc(O)cc(O)c12 [Hyperoside, hyperoside] | detection in plasma after oral PC extract [1, 4]: only detected in the initial plasma samples
5 | 1700 ± 394 | 1700 ± 394 | 554 ± 159 | 0.4 ± 0.3 | 2.6 ± 0.21 | C[C@@H]1O[C@@H](O[C@@H]2[C@@H](O)[C@H](OCCc3ccc(O)c(O)c3)O[C@H](CO)[C@H]2OC(=O)/C=C/c2ccc(O)c(O)c2)[C@H](O)[C@H](O)[C@H]1O [Verbascoside, verbascoside] | –
6 | – | – | – | – | – | Cc1cc(O)c(C(=O)CCC(C)C)c(=O)o1 [Pogostone, pogostone] | concentration maximum (Cmax) [1, 4]: 37204.0 ± 10,901.0 ng/mL; AUC (0-tn) [1, 3]: 258294.0 ± 93,104.7 μg/L*h; AUC (0-∞) [1, 3]: 258320.9 ± 93120.6 ng·h/mL; Cmax [1, 3]: 37204.0 ± 10,901.0 μg/L; T1/2z [1, 3]: 0.8 ± 0.5 h; Tmax [1, 3]: 1.9 ± 1.3 h; area-under-the-curve (AUC) compared with other constituents ([1]; rat plasma, PC extract oral): significantly exceeded that of the other constituents
7 | 255 ± 65.5 | 255 ± 65.5 | 64.2 ± 15.8 | 0.3 ± 0.2 | 2.7 ± 0.6 | O=c1cc(-c2ccc(O)cc2)oc2cc(O)cc(O)c12 [Apigenin, apigenin] | shape of plasma concentration-time curve ([1]; rat plasma, PC extract oral): double-peak phenomenon
8 | – | – | – | – | – | COc1ccc(-c2cc(=O)c3c(O)cc(O[C@@H]4O[C@H](CO)[C@@H](O)[C@H](O)[C@H]4O)cc3o2)cc1O [Diosmetin-7-O-β-D-glucopyranoside, diosmetin-7-O-β-D-glucopyranoside] | detection in plasma after oral PC extract [1, 4]: only detected in the initial plasma samples
9 | – | – | – | – | – | O=c1cc(-c2ccc(O)cc2)oc2c([C@@H]3O[C@H](CO)[C@@H](O)[C@H](O)[C@H]3O)c(O)c([C@@H]3O[C@H](CO)[C@@H](O)[C@H](O)[C@H]3O)c(O)c12 [Vicenin-2, vicenin-2] | AUC (0-tn) [1, 3]: 968.0 ± 131.9 µg·h/L; AUC (0-∞) [1, 3]: 968.8 ± 132.9 ng·h/mL; Cmax [1, 3]: 249.4 ± 50.8 ng/mL; T1/2z [1, 3]: 1.2 ± 0.6 h; Tmax [1, 3]: 0.3 ± 0.1 h
10 | – | – | – | – | – | O=c1cc(-c2ccc(O)cc2)oc2cc(O[C@@H]3O[C@H](CO)[C@@H](O)[C@H](O)[C@H]3O)cc(O)c12 [Cosmosiin, cosmosiin] | T1/2z [2]: 3.7 ± 0.6 h
11 | – | – | – | – | – | COc1ccc(-c2cc(=O)c3c(O)cc(O)cc3o2)cc1 [Acacetin, acacetin] | detection in plasma after oral PC extract [1, 4]: only detected in the initial plasma samples
12 | – | – | – | – | – | O=c1cc(-c2ccc(O)cc2)oc2c([C@@H]3O[C@H](CO)[C@@H](O)[C@H](O)[C@H]3O)c(O)cc(O)c12 [Vitexin, vitexin] | detection in plasma after oral PC extract [1, 4]: only detected in the initial plasma samples
13 | 92.2 ± 33 | 92.2 ± 33 | 33 ± 14.6 | 0.9 ± 0.6 | 1.5 ± 0.2 | COc1cc(O)c2c(=O)c(OC)c(-c3ccc(OC)c(OC)c3)oc2c1 [Retusin, retusin] | –
14 | 243 ± 63.5 | 243 ± 63.5 | 47.8 ± 15.9 | 0.8 ± 0.2 | 2 ± 0.1 | COc1cc(O)c2c(=O)c(OC)c(-c3ccc(O)c(OC)c3)oc2c1 [Pachypodol, pachypodol] | shape of plasma concentration-time curve ([1]; rat plasma, PC extract oral): double-peak phenomenon
